Experimental findings from patent US20030054988A1, “Modified plasminogen related peptide fragments and their use as angiogenesis inhibitors” (priority 2000, published 2003) are described below.

One assay concerns HUVEC. The experiment in a line: HUVEC proliferation in response to mitogenic stimulation. Format: cell-based, human. The source says:
The anti-proliferative effects of the modified peptide fragments on endothelial cells in response to different mitogenic stimulation were also examined. The assay used in these experiments is described by Cao et al. in J. Biol. Chem. 1997 272(36):22924-22928. The modified peptide fragment BMS-291102 (SEQ ID NO: 2) was an extremely potent inhibitor of bFGF-elicited HUVEC proliferation.

Assay [1] relates to human umbilical vein endothelial cell (HUVEC). The experiment in a line: bFGF-induced HUVEC migration. Format: cell-based. An excerpt:
(§1) The assay used in these experiments is described by Ji et al. in Biochem. Biophys. Res. Commun. 1998 247:414-419. […] In addition, the modified peptide fragment BMS-291242 (SEQ ID NO: 12) was an extremely potent inhibitor of bFGF-induced HUVEC migration.

Assay [2] concerns endothelial cells in the matrigel plug. The experiment in a line: In vivo Matrigel plug angiogenesis model. Conditions: 100 μM/plug, peptide embedded in matrigel, bFGF stimulation, nude mice. On the procedure: Modified peptide fragments of the present invention were also evaluated in the matrigel plug model to determine their in vivo anti-angiogenic activities. To minimize the effects caused by differential pharmacokinetic properties of these compounds, the matrigel was prepared together with these peptides and the mixture was implanted into nude mice.
MATRIGEL was mixed with basic fibroblast growth factors at a final concentration of 300 μg/ml. Peptide fragments at selected doses were embedded with the MATRIGEL mixture and injected subcutaneously into mice. The animals were allowed to grow for 7 days. The plugs were then excised and the number of endothelial cells in the plug were examined histologically.

The subject of assay [3] is human umbilical vein endothelial cell (HUVEC). The experiment in a line: VEGF-induced HUVEC migration. Format: cell-based. Conditions: VEGF-induced/stimulated; read-out: inhibition of VEGF-induced HUVEC migration (potency class).
Text: as §1

Where [4] appears, read: bFGF-induced, read-out: inhibition of bFGF-induced HUVEC migration (potency class).

“AQDWAAQEPHRHSIFTPETNPRAGLEKNYA [BMS-291242]”: in the assay with HUVEC (mitogenic stimulus not given), the “anti-proliferative activity on endothelial cells” value is “moderate anti-proliferative activity”. Further, the IC50 in assay [1] (setting [4]) was below 10 nM. In assay [2], the “reduction of number of endothelial cells in matrigel plug / inhibition of bFGF-elicited in vivo angiogenesis” value is on record as “significantly inhibited”. Consider “NYARNPDGDVGGPWAY [BMS-291203, Ac-NYARNPDGDVGGPWAY-NH2]”, for which the “reduction of number of endothelial cells in matrigel plug / inhibition of bFGF-elicited in vivo angiogenesis” value in assay [2] is recorded as “effectively reduced the number of endothelial cells”. Same read-out and setting: to “NYARNPDGDVGGPWAYTTNPRKLYDYADVPQA [BMS-291245]” belongs “significantly inhibited”. Turning to “TTNPRKLYDYADVPQA [BMS-291205, Ac-TTNPRKLYDYADVPQA-NH2]”, the IC50 in assay [1] (stimulus not given, presumably bFGF, read-out: IC50, marginal inhibitory activity (HUVEC migration)) is 1000 nM; in assay [3], below 100 nM. With “VTGTPAQDWAAQEPHR [BMS-291102, Ac-VTGTPAQDWAAQEPHR-NH2]”, in the assay on HUVEC (bFGF-elicited, read-out: inhibition of bFGF-elicited HUVEC proliferation (potency class)), the IC50 is below 10 nM. In assay [2], the “reduction of number of endothelial cells in matrigel plug / inhibition of bFGF-elicited in vivo angiogenesis” value is “effectively reduced the number of endothelial cells”. Consider “WAAQEPHRHSIFTPET [BMS-291209, Ac-WAAQEPHRHSIFTPET-NH2]”, for which the figures for the IC50 in assay [1] (setting [4]) and in assay [3] were below 100 nM and below 10 nM, respectively.
